Experimental data from ChEMBL document CHEMBL1201862, “PubChem BioAssay data set” (2004).
Calls of active or inactive are those of the source. Rule as the data show it: actives have a measured IC50 and inactives only a lower limit.

These molecules were tested against Envelope glycoprotein gp160 (Human immunodeficiency virus 1, UniProt Q6QLK5) (assay: cell-free HIV fusion peptide-binding blockers – biochemical, uHTS, fluorescence dequenching, […] (AID 1986)).
Sequence of Envelope glycoprotein gp160 (Q6QLK5 whole entry, the tested form may be a part): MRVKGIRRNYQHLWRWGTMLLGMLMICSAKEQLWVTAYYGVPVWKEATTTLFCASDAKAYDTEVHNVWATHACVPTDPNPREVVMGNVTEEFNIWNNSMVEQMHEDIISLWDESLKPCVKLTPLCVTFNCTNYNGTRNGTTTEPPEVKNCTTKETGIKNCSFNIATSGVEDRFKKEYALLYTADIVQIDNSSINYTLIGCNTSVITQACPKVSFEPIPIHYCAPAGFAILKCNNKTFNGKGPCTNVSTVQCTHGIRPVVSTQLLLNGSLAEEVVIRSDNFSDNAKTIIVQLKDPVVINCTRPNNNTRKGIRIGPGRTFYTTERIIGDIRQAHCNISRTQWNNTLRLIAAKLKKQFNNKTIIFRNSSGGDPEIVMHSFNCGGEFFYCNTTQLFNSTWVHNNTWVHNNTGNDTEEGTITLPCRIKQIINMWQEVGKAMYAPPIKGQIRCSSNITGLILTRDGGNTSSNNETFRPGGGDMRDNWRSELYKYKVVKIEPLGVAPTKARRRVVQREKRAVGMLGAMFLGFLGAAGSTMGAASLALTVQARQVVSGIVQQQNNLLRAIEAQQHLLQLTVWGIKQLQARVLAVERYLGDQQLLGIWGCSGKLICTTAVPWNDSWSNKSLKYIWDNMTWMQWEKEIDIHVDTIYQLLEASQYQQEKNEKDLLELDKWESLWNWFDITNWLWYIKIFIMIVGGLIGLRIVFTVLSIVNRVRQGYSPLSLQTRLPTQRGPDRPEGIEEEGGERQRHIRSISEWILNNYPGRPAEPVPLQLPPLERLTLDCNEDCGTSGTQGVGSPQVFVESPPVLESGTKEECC
In the case of `Cc1ccc2nc(N3C(=O)C(O)=C(C(=O)c4ccco4)C3c3cccc(O)c3)sc2c1` (stereo not drawn), the IC50 is reported as 16.9 µM (active). In the case of `CC(C)COc1ccc(-c2nn(-c3ccccc3)cc2/C=C2/SC(=S)N(CC(=O)O)C2=O)cc1`, the IC50 is reported as 8.09 µM (active). For `CC1(C)CC(=O)C2=C(C1)c1c(ccc3ccccc13)NC2c1cc([N+](=O)[O-])cc([N+](=O)[O-])c1O` (stereo not drawn), the IC50 was 9.83 µM (active).
